Assay [1] concerns Escherichia coli. Description: Antimicrobial activity against Escherichia coli ATCC 25922 after 48 hrs by broth dilution technique. The assay is classed as functional. Conditions: ATCC 25922, 48 h. In general terms: In broth dilution the organism is exposed to a series of concentrations in liquid medium.
The test system of assay [2] is Klebsiella pneumoniae. Description: Antimicrobial activity against Klebsiella pneumoniae after 48 hrs by broth dilution technique. The assay is classed as functional.
Assay [3] deals with Staphylococcus aureus. Description: Antimicrobial activity against methicillin-sensitive Staphylococcus aureus ATCC 35556 after 48 hrs by broth dilution technique. Conditions: ATCC 35556, 48 h. Type of assay: functional.
Assay [4] relates to Staphylococcus aureus. Nature of the assay: Antimicrobial activity against methicillin-resistant Staphylococcus aureus ATCC 43866 after 48 hrs by broth dilution technique. The assay is classed as functional. As to conditions: ATCC 43866, 48 h.
The test system of assay [5] is Candida albicans. Description: Antimicrobial activity against Candida albicans after 48 hrs by agar dilution method. Type of assay: functional. In general terms: In agar dilution the substance is mixed into plates at graded concentrations.
The subject of assay [6] is Mycobacterium tuberculosis. Nature of the assay: Antitubercular activity against Mycobacterium tuberculosis H37Rv after 7 days by Resazurin micro titer assay. Conditions: 168 h. The assay is classed as functional. Background: Alamar Blue is a resazurin reagent that responds to reducing activity.
Assay [7] deals with Vero. Description: Cytotoxicity against African green monkey Vero cells assessed as reduction in cell viability after 72 hrs by MTT assay. The assay is classed as cell-based. As to conditions: Chlorocebus sabaeus.
The subject of assay [8] is Candida albicans. Description: Ratio of Amphotericin B MIC to compound MIC for Candida albicans after 48 hrs by broth dilution technique. Type of assay: functional.

Here are results for 14 compounds from ChEMBL document CHEMBL3351318, “Synthesis of novel 4-nitropyrrole-based semicarbazide and thiosemicarbazide hybrids with antimicrobial and anti-tubercular activity” (Bioorg Med Chem Lett, 2014).

One may read the MIC as the smallest concentration in the dilution series that meets the test's criterion for growth inhibition. By IC50 is commonly meant the concentration at which inhibition is half-maximal.

Values after ≈ are worked out from the molar mass of the structure shown.

Turning to `O=C(NNC(=O)c1cc([N+](=O)[O-])c[nH]1)Nc1ccccc1`, the MIC in assay [1] was found to be 3.12 µg/mL (≈ 10.8 µM); in assay [2], 3.12 µg/mL (≈ 10.8 µM); in assay [3], 1.56 µg/mL (≈ 5.39 µM); in assay [4] it was 3.12 µg/mL (≈ 10.8 µM); in assay [5], 3.12 µg/mL (≈ 10.8 µM); in assay [6], 40.6 µg/mL (≈ 140 µM). In addition, in assay [7], the IC50 was 357 µM.

As to `COc1ccc(NC(=O)NNC(=O)c2cc([N+](=O)[O-])c[nH]2)cc1`, the MIC came out at 3.12 µg/mL (≈ 9.79 µM) in assay [1]; 3.12 µg/mL (≈ 9.79 µM) in assay [2]; 1.56 µg/mL (≈ 4.89 µM) in assay [3]; 3.12 µg/mL (≈ 9.79 µM) in assay [4]; 3.12 µg/mL (≈ 9.79 µM) in assay [5]; 2.5 µg/mL (≈ 7.83 µM) in assay [6]. For the same compound, the IC50 in assay [7] is 401 µM.

As to `O=C(NNC(=O)c1cc([N+](=O)[O-])c[nH]1)Nc1ccc([N+](=O)[O-])cc1`, the MIC in assay [1] is 3.12 µg/mL (≈ 9.35 µM); in assay [2], 3.12 µg/mL (≈ 9.35 µM); in assay [3] it was 1.56 µg/mL (≈ 4.67 µM); in assay [4] it was 3.12 µg/mL (≈ 9.35 µM); in assay [5], 3.12 µg/mL (≈ 9.35 µM); in assay [6] it was 0.8 µg/mL (≈ 2.39 µM). Further, the IC50 in assay [7] worked out at 211 µM.

For `O=C(NNC(=O)c1cc([N+](=O)[O-])c[nH]1)Nc1ccc(Br)cc1`, the MIC stood at 3.12 µg/mL (≈ 8.49 µM) in assay [1]; 3.12 µg/mL (≈ 8.49 µM) in assay [2]; 1.56 µg/mL (≈ 4.24 µM) in assay [3]; 3.12 µg/mL (≈ 8.49 µM) in assay [4]; 3.12 µg/mL (≈ 8.49 µM) in assay [5]; 1.1 µg/mL (≈ 2.99 µM) in assay [6]. In assay [7], the IC50 worked out at 378 µM.

For `O=C(NNC(=O)c1cc([N+](=O)[O-])c[nH]1)Nc1ccc(Cl)cc1`, the MIC worked out at 3.12 µg/mL (≈ 9.65 µM) in assay [1]; 3.12 µg/mL (≈ 9.65 µM) in assay [2]; 3.12 µg/mL (≈ 9.65 µM) in assay [3]; 6.25 µg/mL (≈ 19.3 µM) in assay [4]; 3.12 µg/mL (≈ 9.65 µM) in assay [5]; 2 µg/mL (≈ 6.18 µM) in assay [6]. In addition, in assay [7], the IC50 turned out to be 218 µM.

`COc1ccc(OC)c(NC(=O)NNC(=O)c2cc([N+](=O)[O-])c[nH]2)c1`: the MIC in assay [1] is 3.12 µg/mL (≈ 8.95 µM); in assay [2], 3.12 µg/mL (≈ 8.95 µM); in assay [3], 1.56 µg/mL (≈ 4.47 µM); in assay [4], 3.12 µg/mL (≈ 8.95 µM); in assay [5], 3.12 µg/mL (≈ 8.95 µM); in assay [6], 14.5 µg/mL (≈ 41.5 µM). In assay [7], the IC50 amounted to 333 µM.

Turning to `O=C(NCc1ccccc1)NNC(=O)c1cc([N+](=O)[O-])c[nH]1`, the MIC in assay [1] is 6.25 µg/mL (≈ 20.6 µM); in assay [2], 6.25 µg/mL (≈ 20.6 µM); in assay [3], 1.56 µg/mL (≈ 5.14 µM); in assay [4], 3.12 µg/mL (≈ 10.3 µM); in assay [5], 3.12 µg/mL (≈ 10.3 µM); in assay [6], 15.2 µg/mL (≈ 50.1 µM). The IC50 in assay [7] was 348 µM.

For the compound `O=C(NCCc1ccccc1)NNC(=O)c1cc([N+](=O)[O-])c[nH]1`, the MIC in assay [1] was 6.25 µg/mL (≈ 19.7 µM); in assay [2] it was 6.25 µg/mL (≈ 19.7 µM); in assay [3], 3.12 µg/mL (≈ 9.85 µM); in assay [4] it was 6.25 µg/mL (≈ 19.7 µM); in assay [5], 3.12 µg/mL (≈ 9.85 µM); in assay [6] it was 10.3 µg/mL (≈ 32.5 µM). Also, the IC50 in assay [7] was 220 µM.

As for `O=C(NCc1ccco1)NNC(=O)c1cc([N+](=O)[O-])c[nH]1`, the MIC in assay [1] was determined as 3.12 µg/mL (≈ 10.7 µM); in assay [2], 3.12 µg/mL (≈ 10.7 µM); in assay [3] it was 1.56 µg/mL (≈ 5.32 µM); in assay [4], 3.12 µg/mL (≈ 10.7 µM); in assay [5], 3.12 µg/mL (≈ 10.7 µM); in assay [6], 0.92 µg/mL (≈ 3.14 µM). The IC50 in assay [7] worked out at 443 µM.

For `O=C(NNC(=O)c1cc([N+](=O)[O-])c[nH]1)NC1CCCC1`, the MIC in assay [1] was found to be 3.12 µg/mL (≈ 11.1 µM); in assay [2], 3.12 µg/mL (≈ 11.1 µM); in assay [3], 1.56 µg/mL (≈ 5.55 µM); in assay [4] it was 3.12 µg/mL (≈ 11.1 µM); in assay [5], 3.12 µg/mL (≈ 11.1 µM); in assay [6], 12.5 µg/mL (≈ 44.4 µM). For the same compound, in assay [7], the IC50 turned out to be 231 µM.

Turning to `Cn1cc([N+](=O)[O-])cc1C(=O)NNC(=O)Nc1ccccc1`, the MIC in assay [1] worked out at 1.56 µg/mL (≈ 5.14 µM); in assay [2], 3.12 µg/mL (≈ 10.3 µM); in assay [3], 1.56 µg/mL (≈ 5.14 µM); in assay [4] it was 3.12 µg/mL (≈ 10.3 µM); in assay [5], 1.56 µg/mL (≈ 5.14 µM); in assay [6], 59.2 µg/mL (≈ 195 µM). Further, the IC50 in assay [7] was determined as 306 µM. Also, the Ratio in assay [8] is given as 2.

`COc1ccc(NC(=O)NNC(=O)c2cc([N+](=O)[O-])cn2C)cc1`: the MIC was determined as 1.56 µg/mL (≈ 4.68 µM) in assay [1]; 3.12 µg/mL (≈ 9.38 µM) in assay [2]; 1.56 µg/mL (≈ 4.68 µM) in assay [3]; 3.12 µg/mL (≈ 9.38 µM) in assay [4]; 1.56 µg/mL (≈ 4.68 µM) in assay [5]; 26.1 µg/mL (≈ 78.3 µM) in assay [6]. Further, the IC50 in assay [7] stood at 328 µM. Also, the Ratio in assay [8] is recorded as 2.

For the compound `Cn1cc([N+](=O)[O-])cc1C(=O)NNC(=O)Nc1ccc([N+](=O)[O-])cc1`, the MIC in assay [1] was 1.56 µg/mL (≈ 4.48 µM); in assay [2] it was 3.12 µg/mL (≈ 8.97 µM); in assay [3] it was 1.56 µg/mL (≈ 4.48 µM); in assay [4], 3.12 µg/mL (≈ 8.97 µM); in assay [5], 1.56 µg/mL (≈ 4.48 µM); in assay [6], 11.9 µg/mL (≈ 34.2 µM). For the same compound, the IC50 in assay [7] stood at 402 µM. Also, the Ratio in assay [8] is listed as 2.

With `Cn1cc([N+](=O)[O-])cc1C(=O)NNC(=O)Nc1ccc(Br)cc1`, the MIC amounted to 1.56 µg/mL (≈ 4.08 µM) in assay [1]; 3.12 µg/mL (≈ 8.18 µM) in assay [2]; 1.56 µg/mL (≈ 4.08 µM) in assay [3]; 3.12 µg/mL (≈ 8.18 µM) in assay [4]; 1.56 µg/mL (≈ 4.08 µM) in assay [5]; 7.8 µg/mL (≈ 20.4 µM) in assay [6]. For the same compound, in assay [7], the IC50 was 602 µM. Further, in assay [8], the Ratio is reported as 2.
